Measurements taken from patent US8178551B2 (Green Cross Corporation, priority 2007, dated 2012).
Where a name gives a salt, the structure may show the parent alone.

Test system: MDCK monolayers
Assay: Drug transport assay with MDCK monolayers (apparent permeability, Papp)
Format: in vitro ADME
Conditions: apical to basolateral, 37° C., 1 hour
Protocol: (§1) Experiment 1. Permeability Measurement by Performing a Drug Transport Assay with MDCK Monolayers
(§2) (+)-3-HM was dissolved in DMSO at 10 mM and stored at 4° C. MDCK cells were obtained from the ATCC (American Type Culture Collection, CCL-34). MDCK cells were maintained in DMEM (Dulbecco's MEM with high glucose) containing 1×NEAA (Non-essential amino acids), 10 mM HEPES, 100 units penicillin, 0.1 mg/ml streptomycin and 8% FBS. The cells were cultivated in T-75 flasks in a cell culture incubator at 37° C. MDCK cells were passaged twice per week. When the cells were 90% confluence, the cells were plated at 1×10^5 cells/well in transwell. The cells were fed with fresh medium every other day. The Cells were grown to confluence on the transwell for 5 days. When the cells have reached confluence and are differentiated, they are ready to be used for transport studies. The TEER (Transepithelial electrical resistance) of each well was measured by Millicell-ERS system ohm meter. The electrode was immersed in 70% ethanol and PBS for 15 minutes. […] MDCK monolayers with TEER values >400Ω were used. After the each well was washed by using sterile HBSS (hank's buffered solution) and (+)-3-HM was diluted 100-fold in HBSS, the apical wells were filled with 200 ul of the test compounds. The basolateral wells were filled with 1 ml of HBSS buffer. Only 0.1% DMSO treated wells prepared to adjust for analysis. The cells were incubated at 37° C. for 1 hour. At the end of the transport period, the result samples were removed from the apical (150 ul) and basolateral (900 ul) wells. The representative compounds of Examples were conducted in same conditions.
(§3) Experiment 2. The HPLC Analysis and the Calculation of Papp
(§4) HPLC analyses were performed using a WATERS HPLC system. A ZORBAX Eclipse XDB-C18 (4.6×250 mm, 5 μm particle size) was used. The optimal operating conditions are as followed; Mobile phase A is composed of distilled water-acetonitrile (ACN) (9:1, v/v) with 0.1% trifluoroacetic acid (TFA), and mobile phase B is 90% acetonitrile with 0.1% TFA. All buffers were used after the 0.45 μm filtration.
(§5) The UV detection was performed at 280 nm or the fluorescence detection was performed at Excitation in 228 nm and Emission in 330 nm.
(§6) The concentration of A and B buffer was performed by the gradient method and the total analysis time was 38 min. The optimal operating conditions: elution gradient 0-10 min (10-50%), 10-20 min (50-90%), 20-25 min (90%), 25-27 min (90-10%), 27-38 min (10%). After the analysis of HPLC, the percentage of area of (+)-3-HM and the compound of Example 2 were calculated by remained concentration (μg/ml).
(§7) The apparent permeability coefficients (Papp), expressed in nm/sec, were calculated by the following equation: Permeability (Papp)=(Receiver Volume×Receiver Conc.)/(Filter surface area×Reaction Time×donor Conc.)×10^7.

Structure (SMILES) | Papp [×10⁻⁶ cm/s]
CC(C)OC(=O)OCOc1ccc2c(c1)[C@]13CCCC[C@@H]1[C@H](C2)NCC3 [Example 80, (+)-Isopropyl(morphinan-3-yloxy)methyl carbonate L-(+)-tartaric acid] | 18.57

Test system: not listed separately
Assay: as above
Format: in vitro ADME
Conditions: dog, MDCK, apical to basolateral, 37° C.
Protocol: as §1, §2, §3, §4, §5, §6, §7

Structure (SMILES) | Papp A→B at 1 h, 100 µM [×10⁻⁶ cm/s]
O=C(OCOc1ccc2c(c1)[C@]13CCCC[C@@H]1[C@H](C2)NCC3)OC1CCCCCC1 [Example 27, TFA] | 23.4
CCC(CC)C(=O)OCOc1ccc2c(c1)[C@]13CCCC[C@@H]1[C@H](C2)NCC3 [Example 54, (+)-(Morphinan-3-yloxy)methyl 2-ethylbutanoate TFA] | 28.9
CC(C)OC(=O)OCOc1ccc2c(c1)[C@]13CCCC[C@@H]1[C@H](C2)NCC3 [Example 2, (+)-Isopropyl(morphinan-3-yloxy)methyl carbonate] | 26.2
CC(C)C(=O)OCOc1ccc2c(c1)[C@]13CCCC[C@@H]1[C@H](C2)NCC3 [Example 44, (+)-(Morphinan-3-yloxy)methyl isobutyrate] | 21.2
O=C(OCOc1ccc2c(c1)[C@]13CCCC[C@@H]1[C@H](C2)NCC3)C1CCCC1 [Example 58, (+)-(Morphinan-3-yloxy)methyl cyclopentanoate TFA] | 6.05
O=C(OCOc1ccc2c(c1)[C@]13CCCC[C@@H]1[C@H](C2)NCC3)OC1CCCCC1 [Example 8, (+)-Cyclohexyl(morphinan-3-yloxy)methyl carbonate] | 19.7
CCCOC(=O)OCOc1ccc2c(c1)[C@]13CCCC[C@@H]1[C@H](C2)NCC3 [Example 3, (+)-(Morphinan-3-yloxy)methyl propyl carbonate] | 21.9
CC(C)COC(=O)OCOc1ccc2c(c1)[C@]13CCCC[C@@H]1[C@H](C2)NCC3 [Example 23, (+)-Isobutyl(morphinan-3-yloxy)methyl carbonate TFA] | 20.3
CCC(C)OC(=O)OCOc1ccc2c(c1)[C@]13CCCC[C@@H]1[C@H](C2)NCC3 (single isomer, unassigned; (+)) [Example 25, (+)-sec-Butyl(morphinan-3-yloxy)methyl carbonate TFA] | 20.3
CCCCC(CC)C(=O)OCOc1ccc2c(c1)[C@]13CCCC[C@@H]1[C@H](C2)NCC3 (stereo partly drawn) [Example 60, (+)-(Morphinan-3-yloxy)methyl 2-ethylhexanoate TFA] | 20.2
O=C(OCOc1ccc2c(c1)[C@]13CCCC[C@@H]1[C@H](C2)NCC3)C1CC1 [Example 68, (+)-(Morphinan-3-yloxy)methyl cyclopropanecarboxylate TFA] | 10.1
O=C(OCOc1ccc2c(c1)[C@]13CCCC[C@@H]1[C@H](C2)NCC3)OCC1CC1 [Example 4, (+)-Cyclopropylmethyl(morphinan-3-yloxy)methyl carbonate] | 15.3
CC(C)CC(=O)OCOc1ccc2c(c1)[C@]13CCCC[C@@H]1[C@H](C2)NCC3 [Example 70, (+)-(Morphinan-3-yloxy)methyl 3-methylbutanoate TFA] | 16.6
CCC(C(=O)OCOc1ccc2c(c1)[C@]13CCCC[C@@H]1[C@H](C2)NCC3)c1ccccc1 (stereo partly drawn) [Example 72, (+)-(Morphinan-3-yloxy)methyl 2-phenylbutanoate TFA] | 13.1
O=C(OCOc1ccc2c(c1)[C@]13CCCC[C@@H]1[C@H](C2)NCC3)OCC1CCC1 [Example 17, (+)-Cyclobutylmethyl(morphinan-3-yloxy)methyl carbonate TFA] | 22.7
O=C(OCOc1ccc2c(c1)[C@]13CCCC[C@@H]1[C@H](C2)NCC3)OC1CCC1 [Example 37, (+)-Cyclobutyl(morphinan-3-yloxy)methyl carbonate TFA] | 13.6
Oc1ccc2c(c1)[C@@]13CCCC[C@H]1[C@@H](C2)NCC3 [HM, (+)-3-hydroxymorphinan] | 3.33
O=C(OCOc1ccc2c(c1)[C@]13CCCC[C@@H]1[C@H](C2)NCC3)OCC1CCCC1 [Example 15, (+)-Cyclopentylmethyl(morphinan-3-yloxy)methyl carbonate TFA] | 33.7
CCC(C)C(=O)OCOc1ccc2c(c1)[C@]13CCCC[C@@H]1[C@H](C2)NCC3 (stereo partly drawn) [Example 66, (+)-(Morphinan-3-yloxy)methyl 2-methylbutanoate TFA] | 16.2
CCCC(C)OC(=O)OCOc1ccc2c(c1)[C@]13CCCC[C@@H]1[C@H](C2)NCC3 (stereo partly drawn) [Example 41, (+)-(Morphinan-3-yloxy)methyl pentan-2-yl carbonate TFA] | 23.1
O=C(OCOc1ccc2c(c1)[C@]13CCCC[C@@H]1[C@H](C2)NCC3)OC1CCCC1 [Example 6, (+)-Cyclopentyl(morphinan-3-yloxy)methyl carbonate] | 20.6
CC(C)(C)C(=O)OCOc1ccc2c(c1)[C@]13CCCC[C@@H]1[C@H](C2)NCC3 [Example 105, (+)-(Morphinan-3-yloxy)methyl pivalate salicylic acid] | 20.3
CC(Cc1ccccc1)OC(=O)OCOc1ccc2c(c1)[C@]13CCCC[C@@H]1[C@H](C2)NCC3 (stereo partly drawn) [Example 31, (+)-(Morphinan-3-yloxy)methyl 1-phenylpropan-2-yl carbonate TFA] | 22.3
O=C(OCOc1ccc2c(c1)[C@]13CCCC[C@@H]1[C@H](C2)NCC3)C1CCCCC1 [Example 56, (+)-(Morphinan-3-yloxy)methyl cyclohexanoate TFA] | 9.43
O=C(OCOc1ccc2c(c1)[C@]13CCCC[C@@H]1[C@H](C2)NCC3)OCC1CCCCC1 [Example 9, (+)-Cyclohexylmethyl(morphinan-3-yloxy)methyl carbonate] | 48.7

Test system: MDCK monolayers
Assay: not given
Conditions: MDCK Papp; cited from earlier work

Structure (SMILES) | Permeability values for known drugs [×10⁻⁶ cm/s]
CC(C(=O)O)c1cccc(C(=O)c2ccccc2)c1 (stereo not shown) [ketoprofen] | 20
CC(=O)Nc1ccc(O)cc1 [acetaminophen] | 35

Test system: MPTP-induced Parkinson's disease animal model
Assay: not given
Conditions: daily injections, literature; cited from earlier work

Structure (SMILES) | neuroprotective property in MPTP models (DA neurons in substantia nigra pars compacta, striatal DA levels)
Oc1ccc2c(c1)[C@@]13CCCC[C@H]1[C@@H](C2)NCC3 [HM, (+)-3-hydroxymorphinan] | dopamine (DA) neurons in substantia nigra pars compacta have been protected and DA levels in striatum has been restored

Test system: not given
Assay: not given
Conditions: known drugs; cited from earlier work

Structure (SMILES) | human absorption [%]
CC(=O)Nc1ccc(O)cc1 [acetaminophen] | 94
C[C@@H]1C[C@H]2[C@@H]3CCC4=CC(=O)C=C[C@]4(C)[C@@]3(F)[C@@H](O)C[C@]2(C)[C@@]1(O)C(=O)CO [dexamethasone] | 98
